In patent US20150274719A1, “AMINO-SUBSTITUTED IMIDAZO[1,2-A]PYRIDINECARBOXAMIDES AND THEIR USE” (BAYER PHARMA AKTIENGESELLSCHAFT, priority 2012, published 2015):

Each molecule was assayed against T1, recombinant guanylate cyclase reporter cell line (Rattus norvegicus, UniProt P19686+P20595) (assay: Action on recombinant guanylate cyclase reporter cell line). Settings: in some cases mean values from individual determinations.
T1 construct: expressed in transfected cells; host or cells: recombinant reporter cell line
T1 sequence (P19686 1-690): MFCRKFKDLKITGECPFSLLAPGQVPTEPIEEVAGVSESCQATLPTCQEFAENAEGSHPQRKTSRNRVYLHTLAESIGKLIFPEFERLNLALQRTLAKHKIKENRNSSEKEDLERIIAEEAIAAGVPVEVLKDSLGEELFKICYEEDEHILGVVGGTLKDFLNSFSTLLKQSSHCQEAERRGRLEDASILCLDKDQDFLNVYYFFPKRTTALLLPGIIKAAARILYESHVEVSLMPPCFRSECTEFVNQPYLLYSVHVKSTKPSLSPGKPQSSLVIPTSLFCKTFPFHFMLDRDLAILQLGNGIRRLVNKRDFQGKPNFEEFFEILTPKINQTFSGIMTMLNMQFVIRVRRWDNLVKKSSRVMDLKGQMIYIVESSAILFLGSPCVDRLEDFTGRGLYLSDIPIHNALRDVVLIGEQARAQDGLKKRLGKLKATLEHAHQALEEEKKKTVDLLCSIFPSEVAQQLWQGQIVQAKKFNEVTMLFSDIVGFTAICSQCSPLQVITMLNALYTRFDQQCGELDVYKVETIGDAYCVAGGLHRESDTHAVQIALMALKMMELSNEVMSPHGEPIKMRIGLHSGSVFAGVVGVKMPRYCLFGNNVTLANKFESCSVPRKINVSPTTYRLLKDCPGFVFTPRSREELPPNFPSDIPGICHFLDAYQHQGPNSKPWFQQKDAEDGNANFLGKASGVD
T1 sequence (P20595 1-619): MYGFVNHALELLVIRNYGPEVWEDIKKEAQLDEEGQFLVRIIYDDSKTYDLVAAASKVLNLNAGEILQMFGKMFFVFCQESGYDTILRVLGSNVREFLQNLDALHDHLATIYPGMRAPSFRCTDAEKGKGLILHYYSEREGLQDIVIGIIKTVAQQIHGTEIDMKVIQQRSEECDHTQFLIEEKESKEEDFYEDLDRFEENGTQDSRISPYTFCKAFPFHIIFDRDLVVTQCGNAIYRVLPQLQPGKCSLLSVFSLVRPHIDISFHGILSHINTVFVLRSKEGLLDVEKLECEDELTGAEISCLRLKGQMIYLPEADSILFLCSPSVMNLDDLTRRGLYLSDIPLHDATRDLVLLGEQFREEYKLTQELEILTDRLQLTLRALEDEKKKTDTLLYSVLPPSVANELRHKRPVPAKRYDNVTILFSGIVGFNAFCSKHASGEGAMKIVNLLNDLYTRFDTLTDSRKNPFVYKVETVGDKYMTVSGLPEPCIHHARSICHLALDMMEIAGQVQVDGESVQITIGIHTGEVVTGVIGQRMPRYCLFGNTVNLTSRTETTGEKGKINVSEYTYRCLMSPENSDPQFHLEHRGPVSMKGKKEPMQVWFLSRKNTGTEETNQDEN
Assay type: cell-based
Procedure, shortened: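 Whole-cell reporter assay with recombinant guanylate cyclase; endpoint = minimal effective concentration.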

MEC (minimal effective concentration) [µM] | Compound
3.00 | CCCC(C)(N)CNC(=O)c1c(C)nc2c(OCc3c(F)cccc3OC)cc(C)cn12 (racemic) [Example 351, rac-N-(2-amino-2-methylpentyl)-8-[(2-fluoro-6-methoxybenzyl)oxy]-2,6-dimethylimidazo[1,2-a]pyridine-3-carboxamide]
0.10 | Cc1cc(OCc2c(F)cccc2F)c2nc(C)c(C(=O)NCC3CSCCN3)n2c1 (racemic) [Example 366, rac-8-[(2,6-difluorobenzyl)oxy]-2,6-dimethyl-N-(thiomorpholin-3-ylmethyl)imidazo[1,2-a]pyridine-3-carboxamide]
3.00 | Cc1cc(OCc2c(F)cccc2F)c2nc(C)c(C(=O)NCC(N)c3cccc(OCCO)c3)n2c1 (racemic) [Example 367, rac-N-{2-amino-2-[3-(2-hydroxyethoxy)phenyl]ethyl}-8-[(2,6-difluorobenzyl)oxy]-2,6-dimethylimidazo[1,2-a]pyridine-3-carboxamide]
0.10 | COc1ccc(CC(C)(N)CNC(=O)c2c(C)nc3c(OCc4c(F)cccc4F)cc(C)cn23)cc1 (racemic) [Example 368, rac-N-[2-amino-3-(4-methoxyphenyl)-2-methylpropyl]-8-[(2,6-difluorobenzyl)oxy]-2,6-dimethylimidazo[1,2-a]pyridine-3-carboxamide]
0.30 | Cc1cc(OCc2c(F)cccc2F)c2nc(C)c(C(=O)NCC(N)c3ccc(C)o3)n2c1 (racemic) [Example 369, rac-N-[2-amino-2-(5-methyl-2-furyl)ethyl]-8-[(2,6-difluorobenzyl)oxy]-2,6-dimethylimidazo[1,2-a]pyridine-3-carboxamide]
3.00 | Cc1cc(OCc2c(F)cccc2F)c2nc(C)c(C(=O)NCC(N)c3cnn(C)c3)n2c1 (racemic) [Example 370, rac-N-[2-amino-2-(1-methyl-1H-pyrazol-4-yl)ethyl]-8-[(2,6-difluorobenzyl)oxy]-2,6-dimethylimidazo[1,2-a]pyridine-3-carboxamide]
3.00 | Cc1cc(OCc2c(F)cccc2F)c2nc(C)c(C(=O)NCC(N)c3ccc4c(c3)OCCO4)n2c1 (racemic) [Example 371, rac-N-[2-amino-2-(2,3-dihydro-1,4-benzodioxin-6-yl)ethyl]-8-[(2,6-difluorobenzyl)oxy]-2,6-dimethylimidazo[1,2-a]pyridine-3-carboxamide]
3.00 | Cc1cc(OCc2c(F)cccc2F)c2nc(C)c(C(=O)NCC(N)c3ccc4ncccc4c3)n2c1 (racemic) [Example 372, rac-N-[2-amino-2-(quinolin-6-yl)ethyl]-8-[(2,6-difluorobenzyl)oxy]-2,6-dimethylimidazo[1,2-a]pyridine-3-carboxamide]
3.00 | Cc1cc(OCc2c(F)cccc2F)c2nc(C)c(C(=O)NCC(N)c3csc4ccccc34)n2c1 (racemic) [Example 373, rac-N-[2-amino-2-(1-benzothiophen-3-yl)ethyl]-8-[(2,6-difluorobenzyl)oxy]-2,6-dimethylimidazo[1,2-a]pyridine-3-carboxamide]
1.00 | Cc1cc(OCc2c(F)cccc2F)c2nc(C)c(C(=O)NCC(N)c3cc(F)c(F)c(F)c3)n2c1 (racemic) [Example 374, rac-N-[2-amino-2-(3,4,5-trifluorophenyl)ethyl]-8-[(2,6-difluorobenzyl)oxy]-2,6-dimethylimidazo[1,2-a]pyridine-3-carboxamide]
3.00 | Cc1cc(OCc2c(F)cccc2F)c2nc(C)c(C(=O)NCC(N)c3cccc(OC(F)F)c3)n2c1 (racemic) [Example 375, rac-N-{2-amino-2-[3-(difluoromethoxy)phenyl]ethyl}-8-[(2,6-difluorobenzyl)oxy]-2,6-dimethylimidazo[1,2-a]pyridine-3-carboxamide]
3.00 | Cc1cc(OCc2c(F)cccc2F)c2nc(C)c(C(=O)NCC(N)c3cccc(C(F)(F)F)c3)n2c1 (racemic) [Example 376, rac-N-{2-amino-2-[3-(trifluoromethyl)phenyl]ethyl}-8-[(2,6-difluorobenzyl)oxy]-2,6-dimethylimidazo[1,2-a]pyridine-3-carboxamide]
3.00 | Cc1cc(OCc2c(F)cccc2F)c2nc(C)c(C(=O)NCC(N)c3cccc(OC(F)(F)F)c3)n2c1 (racemic) [Example 377, rac-N-{2-amino-2-[3-(trifluoromethoxy)phenyl]ethyl}-8-[(2,6-difluorobenzyl)oxy]-2,6-dimethylimidazo[1,2-a]pyridine-3-carboxamide]
1.00 | COc1cccc(C(N)CNC(=O)c2c(C)nc3c(OCc4c(F)cccc4F)cc(C)cn23)c1 (racemic) [Example 378, rac-N-[2-amino-2-(3-methoxyphenyl)ethyl]-8-[(2,6-difluorobenzyl)oxy]-2,6-dimethylimidazo[1,2-a]pyridine-3-carboxamide]
1.00 | Cc1cc(OCc2c(F)cccc2F)c2nc(C)c(C(=O)NC(CN)c3ccc4ccccc4c3)n2c1 (racemic) [Example 379, rac-N-[2-amino-1-(2-naphthyl)ethyl]-8-[(2,6-difluorobenzyl)oxy]-2,6-dimethylimidazo[1,2-a]pyridine-3-carboxamide]
1.00 | Cc1cc(OCc2c(F)cccc2F)c2nc(C)c(C(=O)NC(CN)c3cccc(OC(F)(F)F)c3)n2c1 (racemic) [Example 380, rac-N-{2-amino-1-[3-(trifluoromethoxy)phenyl]ethyl}-8-[(2,6-difluorobenzyl)oxy]-2,6-dimethylimidazo[1,2-a]pyridine-3-carboxamide]
0.30 | Cc1cc(OCc2c(F)cccc2F)c2nc(C)c(C(=O)NC(CN)c3ccc4c(c3)OCO4)n2c1 (racemic) [Example 381, rac-N-[2-amino-1-(1,3-benzodioxol-5-yl)ethyl]-8-[(2,6-difluorobenzyl)oxy]-2,6-dimethylimidazo[1,2-a]pyridine-3-carboxamide]
0.30 | COc1cccc(C(CN)NC(=O)c2c(C)nc3c(OCc4c(F)cccc4F)cc(C)cn23)c1 (racemic) [Example 382, rac-N-[2-amino-1-(3-methoxyphenyl)ethyl]-8-[(2,6-difluorobenzyl)oxy]-2,6-dimethylimidazo[1,2-a]pyridine-3-carboxamide]
0.30 | Cc1cc(OCc2c(F)cccc2F)c2nc(C)c(C(=O)NC(CN)c3cccc(Br)c3)n2c1 (racemic) [Example 383, rac-N-[2-amino-1-(3-bromophenyl)ethyl]-8-[(2,6-difluorobenzyl)oxy]-2,6-dimethylimidazo[1,2-a]pyridine-3-carboxamide]
0.30 | Cc1cc(OCc2c(F)cccc2F)c2nc(C)c(C(=O)NC(CN)c3ccc([N+](=O)[O-])cc3)n2c1 (racemic) [Example 384, rac-N-[2-amino-1-(4-nitrophenyl)ethyl]-8-[(2,6-difluorobenzyl)oxy]-2,6-dimethylimidazo[1,2-a]pyridine-3-carboxamide]
1.00 | C=Cc1cccc(C(CN)NC(=O)c2c(C)nc3c(OCc4c(F)cccc4F)cc(C)cn23)c1 (racemic) [Example 385, rac-N-[2-amino-1-(3-ethenylphenyl)ethyl]-8-[(2,6-difluorobenzyl)oxy]-2,6-dimethylimidazo[1,2-a]pyridine-3-carboxamide]

Compound | MEC (minimal effective concentration) [µM]
COc1ccc(CC(C)(CN)NC(=O)c2c(C)nc3c(OCc4c(F)cccc4F)cc(C)cn23)cc1 (racemic) [Example 386, rac-N-[1-amino-3-(4-methoxyphenyl)-2-methylpropan-2-yl]-8-[(2,6-difluorobenzyl)oxy]-2,6-dimethylimidazo[1,2-a]pyridine-3-carboxamide] | 0.65
